Results as given in ChEMBL document CHEMBL1201862, “PubChem BioAssay data set” (2004).
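Results reflect a 48-hour exposure of cells in 96-well plates to compound at five concentrations. Here, GI50 denotes the concentration required for 50% inhibition of growth.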 Activity calls are given as the source filed them. Rule as the data show it: active = GI50 up to about 1.1 µM and inactive = higher.

How the values were obtained:
Assay in all cases: inhibition of tumour cell growth, NCI panel, 48 h
A549 = test system: A549
DU-145 = test system: DU-145
HCC 2998 = test system: HCC 2998
HCT-116 = test system: HCT-116
Hs-578T = test system: Hs-578T
K562 = test system: K562
MDA-N = test system: MDA-N
MOLT-4 = test system: MOLT-4
Malme-3M = test system: Malme-3M
NCI-H226 = test system: NCI-H226
NCI-H460 = test system: NCI-H460
RXF 393 = test system: RXF 393
SF-268 = test system: SF-268
SF-295 = test system: SF-295
SK-MEL-2 = test system: SK-MEL-2
SK-OV-3 = test system: SK-OV-3
SN12C = test system: SN12C
TK-10 = test system: TK-10

| Structure (SMILES) | GI50 (A549) | GI50 (DU-145) | GI50 (HCC 2998) | GI50 (HCT-116) | GI50 (Hs-578T) | GI50 (K562) | GI50 (MDA-N) | GI50 (MOLT-4) | GI50 (Malme-3M) | GI50 (NCI-H226) | GI50 (NCI-H460) | GI50 (RXF 393) | GI50 (SF-268) | GI50 (SF-295) | GI50 (SK-MEL-2) | GI50 (SK-OV-3) | GI50 (SN12C) | GI50 (TK-10) |
| --- | --- | --- | --- | --- | --- | --- | --- | --- | --- | --- | --- | --- | --- | --- | --- | --- | --- | --- |
| C/C(=C/C(=O)Nn1c(Cc2ccccc2)n[nH]c1=O)C(=O)O | > 100 µM (inactive) | > 100 µM (inactive) | > 100 µM (inactive) | > 100 µM (inactive) | > 100 µM (inactive) | > 100 µM (inactive) | > 100 µM (inactive) | > 100 µM (inactive) | > 100 µM (inactive) | > 100 µM (inactive) | > 100 µM (inactive) | > 100 µM (inactive) | > 100 µM (inactive) | > 100 µM (inactive) | > 100 µM (inactive) | > 100 µM (inactive) | > 100 µM (inactive) | > 100 µM (inactive) |
| COc1ccc(/C=C2/C(=O)N(/C=C3\C(=O)Oc4ccccc4C3=O)/C(=N/C(C)=O)N2C)cc1OC | > 100 µM (inactive) | > 100 µM (inactive) | > 100 µM (inactive) | > 100 µM (inactive) | > 100 µM (inactive) | > 100 µM (inactive) | > 100 µM (inactive) | > 100 µM (inactive) | > 100 µM (inactive) | > 100 µM (inactive) | > 100 µM (inactive) | > 100 µM (inactive) | > 100 µM (inactive) | > 100 µM (inactive) | > 100 µM (inactive) | > 100 µM (inactive) | > 100 µM (inactive) |  |
| CCOC(=O)C(Cc1ccc(OC(=O)OC(C)(C)C)cc1)NC(=O)OC(C)(C)C (stereo unspecified) | > 100 µM (inactive) | 30.5 µM (inactive) | 30.3 µM (inactive) | 78 µM (inactive) | 47.5 µM (inactive) | 76.4 µM (inactive) | > 100 µM (inactive) | 19.7 µM (inactive) | > 100 µM (inactive) | > 100 µM (inactive) | > 100 µM (inactive) | 53.2 µM (inactive) | 65.2 µM (inactive) | > 100 µM (inactive) | > 100 µM (inactive) | > 100 µM (inactive) | 44.8 µM (inactive) | 71.1 µM (inactive) |
| C/C=C1/CN2[C@@H](C3=C[C@@H]4[C@@H]5N(C3=O)c3ccccc3[C@@]53CCN5C/C(=C/C)[C@@H]4C[C@H]53)C[C@@]34c5ccccc5N5C(=O)CC=C([C@H]1C[C@H]23)[C@H]54 [ISOSUNGUCINE] | 7.66 µM (inactive) | 9.91 µM (inactive) | 2.43 µM (inactive) | 2.94 µM (inactive) | 6.65 µM (inactive) | 2.05 µM (inactive) | 3.84 µM (inactive) | 1.46 µM (inactive) | 6.04 µM (inactive) | 7.83 µM (inactive) | 6.62 µM (inactive) | 2.17 µM (inactive) | 6.19 µM (inactive) | 7.73 µM (inactive) | 5.32 µM (inactive) | 8.77 µM (inactive) | 3.01 µM (inactive) | 7.85 µM (inactive) |
| CC1=CC(=O)/C(=C/NC(=S)C(N)=S)C(=O)O1 | > 100 µM (inactive) | > 100 µM (inactive) | > 100 µM (inactive) | > 100 µM (inactive) | > 100 µM (inactive) | > 100 µM (inactive) | > 100 µM (inactive) | 16 µM (inactive) |  | > 100 µM (inactive) | > 100 µM (inactive) | > 100 µM (inactive) | > 100 µM (inactive) | > 100 µM (inactive) | > 100 µM (inactive) | > 100 µM (inactive) | > 100 µM (inactive) | > 100 µM (inactive) |
| CCOP(C)(=O)C(N)Cc1ccc(OC)c(OC)c1 (stereo unspecified) | > 100 µM (inactive) | > 100 µM (inactive) | > 100 µM (inactive) | > 100 µM (inactive) | > 100 µM (inactive) | > 100 µM (inactive) | > 100 µM (inactive) | > 100 µM (inactive) | > 100 µM (inactive) | > 100 µM (inactive) | > 100 µM (inactive) | > 100 µM (inactive) | > 100 µM (inactive) | > 100 µM (inactive) |  | > 100 µM (inactive) | > 100 µM (inactive) | > 100 µM (inactive) |
| Nc1c(Br)cc(-c2cc(Br)c(N)c(Br)c2)cc1Br | > 100 µM (inactive) | > 100 µM (inactive) | > 100 µM (inactive) | > 100 µM (inactive) | 73.1 µM (inactive) | > 100 µM (inactive) | > 100 µM (inactive) | > 100 µM (inactive) | > 100 µM (inactive) | > 100 µM (inactive) | > 100 µM (inactive) | 33.6 µM (inactive) | > 100 µM (inactive) | > 100 µM (inactive) |  | > 100 µM (inactive) | > 100 µM (inactive) | > 100 µM (inactive) |
| CN(C)c1cc2ccccc2oc1=O | > 100 µM (inactive) | > 100 µM (inactive) | > 100 µM (inactive) | > 100 µM (inactive) | > 100 µM (inactive) | > 100 µM (inactive) | > 100 µM (inactive) | > 100 µM (inactive) | > 100 µM (inactive) | > 100 µM (inactive) | > 100 µM (inactive) | 20.6 µM (inactive) | > 100 µM (inactive) | > 100 µM (inactive) | > 100 µM (inactive) |  | > 100 µM (inactive) | > 100 µM (inactive) |
| C/C(O)=C/C(=O)c1[nH]c(C(=O)O)cc1C1CCN(Cc2ccccc2)C1=O (stereo unspecified) | 26.9 µM (inactive) | 18.3 µM (inactive) | 13.2 µM (inactive) | 24.3 µM (inactive) | 32.4 µM (inactive) | 29.4 µM (inactive) | 17.2 µM (inactive) | 20 µM (inactive) | 20 µM (inactive) |  | 15.8 µM (inactive) | 12 µM (inactive) | 20 µM (inactive) | 17.9 µM (inactive) | 22.8 µM (inactive) | 22.8 µM (inactive) |  | 27.9 µM (inactive) |
| O=C(Nc1cc2cc([N+](=O)[O-])ccc2oc1=O)c1cccs1 | 43.8 µM (inactive) | > 100 µM (inactive) | 48.3 µM (inactive) | 25.4 µM (inactive) | 30.8 µM (inactive) | 25.9 µM (inactive) | 46.1 µM (inactive) | 25.3 µM (inactive) | > 100 µM (inactive) | 44 µM (inactive) | 51.2 µM (inactive) | 4.86 µM (inactive) | 33.2 µM (inactive) | 54.2 µM (inactive) | 72.9 µM (inactive) |  | 40.5 µM (inactive) | > 100 µM (inactive) |
| CC1(C)CC2C(=O)c3ccccc3NC2c2ccccc21 (stereo unspecified) | 6.11 µM (inactive) | 3.6 µM (inactive) | 5.86 µM (inactive) | 2.99 µM (inactive) | 2.87 µM (inactive) | 1.09 µM (active) | 0.32 µM (active) | 0.735 µM (active) | 4.99 µM (inactive) | 11.9 µM (inactive) | 3.12 µM (inactive) | 1.87 µM (inactive) | 14.6 µM (inactive) | 1.84 µM (inactive) |  |  | 5.79 µM (inactive) | 12 µM (inactive) |
| COCN(CCC1=CCCCC1)C(=O)OC | > 100 µM (inactive) | 49.8 µM (inactive) | > 100 µM (inactive) | 41.4 µM (inactive) | > 100 µM (inactive) | 61.5 µM (inactive) | > 100 µM (inactive) | > 100 µM (inactive) | > 100 µM (inactive) |  | 29.9 µM (inactive) | > 100 µM (inactive) | > 100 µM (inactive) | 28.2 µM (inactive) | > 100 µM (inactive) | > 100 µM (inactive) |  | > 100 µM (inactive) |
| CNC(=O)Nc1cc2c3c(c1)CCCN3CCC2 | > 10 µM (inactive) | > 10 µM (inactive) | > 10 µM (inactive) | > 10 µM (inactive) | > 10 µM (inactive) | > 10 µM (inactive) | > 10 µM (inactive) |  | > 10 µM (inactive) | > 10 µM (inactive) | > 10 µM (inactive) | > 10 µM (inactive) | > 10 µM (inactive) | > 10 µM (inactive) | > 10 µM (inactive) | > 10 µM (inactive) | > 10 µM (inactive) | > 10 µM (inactive) |
| Clc1cccc2[nH]ncc12 | > 100 µM (inactive) | > 100 µM (inactive) | > 100 µM (inactive) | 66.7 µM (inactive) | 76 µM (inactive) | > 100 µM (inactive) | > 100 µM (inactive) | > 100 µM (inactive) |  | > 100 µM (inactive) | > 100 µM (inactive) | 51.8 µM (inactive) |  | > 100 µM (inactive) | > 100 µM (inactive) | > 100 µM (inactive) | > 100 µM (inactive) | > 100 µM (inactive) |
| CC(=O)OC1=CC2=CC[C@H]3[C@@H]4CCC(=O)[C@@]4(C)CC(=O)[C@]3(S)[C@@]2(C)CC1 | 49.4 µM (inactive) | 62.5 µM (inactive) | 31.6 µM (inactive) | 21.7 µM (inactive) | 25.1 µM (inactive) | 25.1 µM (inactive) | 31.7 µM (inactive) | 17.4 µM (inactive) | 22.8 µM (inactive) |  | 25.2 µM (inactive) | 18.7 µM (inactive) | 26.7 µM (inactive) | 48.4 µM (inactive) | 47.1 µM (inactive) | 65.6 µM (inactive) | 37.6 µM (inactive) | 27.9 µM (inactive) |
| COc1cc2c(c(OC)c1OC)-c1ccc(SC)c(=O)cc1[C@@H](OC(C)=O)CC2 | < 0.01 µM (active) | < 0.01 µM (active) | < 0.01 µM (active) | < 0.01 µM (active) | < 0.01 µM (active) | < 0.01 µM (active) | < 0.01 µM (active) | < 0.01 µM (active) | < 0.01 µM (active) | < 0.01 µM (active) | < 0.01 µM (active) | 0.885 µM (active) | < 0.01 µM (active) | < 0.01 µM (active) | < 0.01 µM (active) |  | < 0.01 µM (active) | 21.8 µM (inactive) |
